Reference: patent publication US9540385B2, “Pyrrolopyrimidine compounds as kinase inhibitors” (Pharmacyclics LLC, priority 2012, dated 2017)

Each compound was assayed against T1, BTK (Homo sapiens, UniProt Q06187) (assay: Btk in vitro inhibitory activity / inhibition of a panel of kinases (TR-FRET, mobility shift or radiometric filter binding)). Settings: kinase assay by one of methods A, B or C.
T1 construct: purified from insect cells as a full-length construct containing a N-terminal 6×-His tag; His6 (N); made in house; host or cells: insect cells (baculovirus, Sf21)
Assay type: biochemical
Procedure: Btk kinase activity is determined using a time-resolved fluorescence resonance energy transfer (TR-FRET) methodology. Measurements are performed in a reaction volume of 50 μL using 96-well assay plates. Kinase enzyme, inhibitor, ATP (at the Km for the kinase), and 1 μM peptide substrate (Biotin-AVLESEEELYSSARQ-NH2) are incubated in a reaction buffer composed of 20 mM Tris, 50 mM NaCl, MgCl2 (5-25 mM depending on the kinase), MnCl2 (0-10 mM), 1 mM DTT, 0.1 mM EDTA, 0.01% bovine serum albumin, 0.005% Tween-20, and 10% DMSO at pH 7.4 for one hour. The reaction is quenched by the addition of 1.2 equivalents of EDTA (relative to divalent cation) in 25 μL of 1× Lance buffer (Perkin-Elmer). Streptavidin-APC (Perkin-Elmer) and Eu-labeled p-Tyr100 antibody (Perkin-Elmer) in 1× Lance buffer are added in a 25 μL volume to give final concentrations of 100 nM and 2.5 nM, respectively, and the mixture is allowed to incubate for one hour. The TR-FRET signal is measured on a multimode plate reader with an excitation wavelength (λEx) of 330 nm and detection wavelengths (λEm) of 615 and 665 nm. Activity is determined by the ratio of the fluorescence at 665 nm to that at 615 nm. For each compound, enzyme activity is measured at various concentrations of compound. Negative control reactions are performed in the absence of inhibitor in replicates of six, and two no-enzyme controls are used to determine baseline fluorescence levels. Inhibition constants, Ki(app), ware obtained using the program BatchKi (Kuzmic et al. (2000), Anal. Biochem. 286:45-50). IC50s are obtained according to the equation: IC50={Ki(app)/(1+[ATP]/Km^ATP)}+[E]total/2;
For all kinases, [ATP]=Km^ATP, [Btk]total=0.5 nM and [Lck]total=6 nM.
Kinase activity is measured in vitro using electrophoretic mobility shift assay. The kinase reactions are assembled in a total volume of 25 μL in 384 well plates. The reactions comprise: BTK enzyme (1 nM, N-terminal His6-tagged, recombinant, full-length, human BTK purified from baculovirus Sf21 insect cell system), inhibitor, ATP ([…] the apparent Km for the kinase), fluorescently labeled peptide substrate (1 μM, FAM-GEEPLYWSFPAKKK-NH2) in a reaction buffer composed of 100 mM HEPES, pH7.5, 5 mM MgCl2 1 mM DTT, 0.1% bovine serum albumin, 0.01% Triton X-100, and 1% DMSO. The reaction is incubated for one hour and is quenched by the addition of 45 μL of termination buffer (100 mM HEPES, pH7.5, 0.01% Triton X-100, 30 mM EDTA). The terminated reactions are analyzed using 12 channel LabChip® 3000 microfluidic detection instrument (Caliper Life Sciences). The enzymatic phosphorylation of the peptide results in a change in net charge, enabling electrophoretic separation of product from substrate peptide. As substrate and product peptides are separated, two peaks of fluorescence are observed. Change in the relative fluorescence intensity of the substrate and product peaks is the parameter measured, reflecting enzyme activity. In the presence of an inhibitor, the ratio between product and substrate is altered: the signal of the product decreases, while the signal of the substrate increases.
Activity in each sample is determined as the product to sum ratio (PSR):P/(S+P), where P is the peak height of the product peptide and S is the peak height of the substrate peptide. For each compound, enzyme activity is measured at various concentrations (12 concentrations of compound spaced by 3× dilution intervals). Negative control samples (0%-inhibition in the absence of inhibitor) and positive control samples (100%-inhibition, in the presence of 20 mM EDTA) are assembled in replicates of four and are used to calculate %-inhibition values for each inhibitor at each concentration. Percent inhibition (Pinh) is determined using following equation: […]

T1 sequence (Q06187 whole entry): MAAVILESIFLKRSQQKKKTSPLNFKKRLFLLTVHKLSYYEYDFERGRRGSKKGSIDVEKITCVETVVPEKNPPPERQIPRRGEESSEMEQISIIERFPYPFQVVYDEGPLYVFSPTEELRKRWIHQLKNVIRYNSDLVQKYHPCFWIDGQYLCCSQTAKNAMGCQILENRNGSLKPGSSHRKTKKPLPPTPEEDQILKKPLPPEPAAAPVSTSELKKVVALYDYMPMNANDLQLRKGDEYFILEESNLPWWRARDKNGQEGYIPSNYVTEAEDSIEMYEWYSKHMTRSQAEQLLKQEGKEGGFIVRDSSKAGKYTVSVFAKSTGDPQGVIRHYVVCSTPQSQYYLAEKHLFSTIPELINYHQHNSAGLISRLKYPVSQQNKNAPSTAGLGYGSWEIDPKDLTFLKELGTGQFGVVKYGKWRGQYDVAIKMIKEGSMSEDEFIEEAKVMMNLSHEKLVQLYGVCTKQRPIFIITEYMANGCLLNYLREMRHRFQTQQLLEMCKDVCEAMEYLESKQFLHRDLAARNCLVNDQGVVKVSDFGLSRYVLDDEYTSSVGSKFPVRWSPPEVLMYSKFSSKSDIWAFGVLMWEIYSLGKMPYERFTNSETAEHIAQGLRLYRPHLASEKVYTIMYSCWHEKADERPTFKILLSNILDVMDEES

Row | IC50 | SMILES
1 | < 100 nM | Cc1c(-c2ccc(Oc3ccccc3)cc2)c2c(N)ncnc2n1[C@@H]1CCN(C(=O)/C=C/CN(C)[C@H]2CCOC2)C1 [Compound 129, (E)-1-((R)-3-(4-amino-6-methyl-5-(4-phenoxyphenyl)-7H-pyrrolo[2,3-d]pyrimidin-7-yl)pyrrolidin-1-yl)-4-(methyl((S)-tetrahydrofuran-3-yl)amino)but-2-en-1-one]
2 | < 100 nM | CN(C/C=C/C(=O)N1CC[C@@H](n2c(C#N)c(-c3ccc(Oc4ccccc4)cc3)c3c(N)ncnc32)C1)[C@H]1CCOC1 [Compound 106, 4-amino-7-((R)-1-((E)-4-(methyl((S)-tetrahydrofuran-3-yl)amino)but-2-enoyl)pyrrolidin-3-yl)-5-(4-phenoxyphenyl)-7H-pyrrolo[2,3-d]pyrimidine-6-carbonitrile]
3 | < 100 nM | CN(C/C=C/C(=O)N1CC[C@@H](n2c(C#N)c(-c3ccc(Oc4ccccc4)cc3)c3c(N)ncnc32)C1)C1CC1 [Compound 103, (R,E)-4-amino-7-(1-(4-(cyclopropyl(methyl)amino)but-2-enoyl)pyrrolidin-3-yl)-5-(4-phenoxyphenyl)-7H-pyrrolo[2,3-d]pyrimidine-6-carbonitrile]
4 | < 100 nM | Cc1c(-c2ccc(Oc3cccc(F)c3)cc2)c2c(N)ncnc2n1[C@@H]1CCCN(C(=O)/C=C/CN(C)C2CC2)C1 [Compound 76, (R,E)-1-(3-(4-amino-5-(4-(3-fluorophenoxyl)phenyl)-6-methyl-7H-pyrrolo[2,3-d]pyrimidin-7-yl)piperidin-1-yl)-4-(cyclopropyl(methyl)amino)but-2-en-1-one]
5 | < 100 nM | CN(C/C=C/C(=O)N1CC[C@@H](n2c(Cl)c(-c3ccc(Oc4ccccc4)cc3)c3c(N)ncnc32)C1)[C@H]1CCOC1 [Compound 56, (E)-1-((R)-3-(4-amino-6-chloro-5-(4-phenoxyphenyl)-7H-pyrrolo[2,3-d]pyrimidin-7-yl)pyrrolidin-1-yl)-4-(methyl((S)-tetrahydrofuran-3-yl)amino)but-2-en-1-one]
6 | < 100 nM | COCCN(C/C=C/C(=O)N1CC[C@@H](n2c(C)c(-c3ccc(Oc4ccccc4)cc3)c3c(N)ncnc32)C1)CCOC [Compound 79, (R,E)-1-(3-(4-amino-6-methyl-5-(4-phenoxyphenyl)-7H-pyrrolo[2,3-d]pyrimidin-7-yl)pyrrolidin-1-yl)-4-(bis(2-methoxyethyl)amino)but-2-en-1-one]
7 | < 100 nM | CN(C/C=C/C(=O)N1CC[C@@H](n2c(C(F)F)c(-c3ccc(Oc4ccccc4)cc3)c3c(N)ncnc32)C1)C1CC1 [Compound 122, (R,E)-1-(3-(4-amino-6-(difluoromethyl)-5-(4-phenoxyphenyl)-7H-pyrrolo[2,3-d]pyrimidin-7-yl)pyrrolidin-1-yl)-4-(cyclopropyl(methyl)amino)but-2-en-1-one]
8 | < 100 nM | CN(C/C=C/C(=O)N1CC[C@@H](n2c(C#N)c(-c3ccc(Oc4cccc(F)c4)cc3)c3c(N)ncnc32)C1)C1CC1 [Compound 109, (R,E)-4-amino-7-(1-(4-(cyclopropyl(methyl)amino)but-2-enoyl)pyrrolidin-3-yl)-5-(4-(3-fluorophenoxyl)phenyl)-7H-pyrrolo[2,3-d]pyrimidine-6-carbonitrile]
9 | < 100 nM | COCCN(C)C/C=C/C(=O)N1CC[C@@H](n2c(C3CC3)c(-c3ccc(Oc4ccccc4)cc3)c3c(N)ncnc32)C1 [Compound 96, (R,E)-1-(3-(4-amino-6-cyclopropyl-5-(4-phenoxyphenyl)-7H-pyrrolo[2,3-d]pyrimidin-7-yl)pyrrolidin-1-yl)-4-((2-methoxyethyl)(methyl)amino)but-2-en-1-one]
10 | 100 to 1000 nM | CC(C)c1c(-c2ccc(Oc3ccccc3)cc2)c2c(N)ncnc2n1[C@@H]1CCN(C(=O)/C=C/CN(C)C2CC2)C1 [Compound 118, (R,E)-1-(3-(4-amino-6-isopropyl-5-(4-phenoxyphenyl)-7H-pyrrolo[2,3-d]pyrimidin-7-yl)pyrrolidin-1-yl)-4-(cyclopropyl(methyl)amino)but-2-en-1-one]
11 | < 100 nM | COCCN(C)C/C=C/C(=O)N1CC[C@@H](n2c(Cl)c(-c3ccc(Oc4ccccc4)cc3)c3c(N)ncnc32)C1 [Compound 55, (R,E)-1-(3-(4-amino-6-chloro-5-(4-phenoxyphenyl)-7H-pyrrolo[2,3-d]pyrimidin-7-yl)pyrrolidin-1-yl)-4-((2-methoxyethyl)(methyl)amino)but-2-en-1-one]
12 | < 100 nM | CN(C/C=C/C(=O)N1CC[C@@H](n2c(Cl)c(-c3ccc(Oc4cccc(F)c4)cc3)c3c(N)ncnc32)C1)C1CC1 [Compound 60, (R,E)-1-(3-(4-amino-6-chloro-5-(4-(3-fluorophenoxy)phenyl)-7H-pyrrolo[2,3-d]pyrimidin-7-yl)pyrrolidin-1-yl)-4-(cyclopropyl(methyl)amino)but-2-en-1-one]
13 | < 100 nM | COCCN(C)C/C=C/C(=O)N1CC[C@@H](n2c(F)c(-c3ccc(Oc4ccccc4)cc3)c3c(N)ncnc32)C1 [Compound 49, (R,E)-1-(3-(4-amino-6-fluoro-5-(4-phenoxyphenyl)-7H-pyrrolo[2,3-d]pyrimidin-7-yl)pyrrolidin-1-yl)-4-((2-methoxyethyl)(methyl)amino)but-2-en-1-one]
14 | < 100 nM | Cc1c(-c2ccc(OCc3cnn[nH]3)cc2)c2c(N)ncnc2n1[C@@H]1CCN(C(=O)/C=C/CN(C)C2CC2)C1 [Compound 86, (R,E)-1-(3-(5-(4-((1H-1,2,3-triazol-5-yl)methoxy)phenyl)-4-amino-6-methyl-7H-pyrrolo[2,3-d]pyrimidin-7-yl)pyrrolidin-1-yl)-4-(cyclopropyl(methyl)amino)but-2-en-1-one]
15 | < 100 nM | CN(C/C=C/C(=O)N1CC[C@@H](n2c(Cl)c(-c3ccc(Oc4ccccc4)cc3)c3c(N)ncnc32)C1)[C@@H]1CCOC1 [Compound 57, (E)-1-((R)-3-(4-amino-6-chloro-5-(4-phenoxyphenyl)-7H-pyrrolo[2,3-d]pyrimidin-7-yl)pyrrolidin-1-yl)-4-(methyl((R)-tetrahydrofuran-3-yl)amino)but-2-en-1-one]
16 | < 100 nM | C#Cc1c(-c2ccc(Oc3ccccc3)cc2)c2c(N)ncnc2n1[C@@H]1CCN(C(=O)/C=C/CN(C)C2CC2)C1 [Compound 112, (R,E)-1-(3-(4-amino-6-ethynyl-5-(4-phenoxyphenyl)-7H-pyrrolo[2,3-d]pyrimidin-7-yl)pyrrolidin-1-yl)-4-(cyclopropyl(methyl)amino)but-2-en-1-one]
17 | 100 to 1000 nM | CN(C/C=C/C(=O)N1CC[C@@H](n2c(C3CC3)c(-c3ccc(Oc4cccc(F)c4)cc3)c3c(N)ncnc32)C1)C1CC1 [Compound 99, (R,E)-1-(3-(4-amino-6-cyclopropyl-5-(4-(3-fluorophenoxy)phenyl)-7H-pyrrolo[2,3-d]pyrimidin-7-yl)pyrrolidin-1-yl)-4-(cyclopropyl(methyl)amino)but-2-en-1-one]
18 | < 100 nM | CN(C(=O)/C=C/CN(C)C1CC1)c1ccc(-n2c(Cl)c(-c3ccc(Cl)cc3)c3c(N)ncnc32)cc1 [Compound 31, (E)-N-(4-(4-amino-6-chloro-5-(4-chlorophenyl)-7H-pyrrolo[2,3-d]pyrimidin-7-yl)phenyl)-4-(cyclopropyl(methyl)amino)-N-methylbut-2-enamide]
19 | < 100 nM | CN(C/C=C/C(=O)N1CC[C@@H](n2c(C(N)=O)c(-c3ccc(Oc4ccccc4)cc3)c3c(N)ncnc32)C1)C1CC1 [Compound 126, (R,E)-4-amino-7-(1-(4-(cyclopropyl(methyl)amino)but-2-enoyl)pyrrolidin-3-yl)-5-(4-phenoxyphenyl)-7H-pyrrolo[2,3-d]pyrimidine-6-carboxamide]
